Results on three compounds are retold here after PMC9173702 (ACS chemical biology, 2022).

Series [1] can be described thus: Solubility of stock solution for CD spectroscopy. It is filed as physicochemical. Conditions: 5 mM stock in 10% acetonitrile.
Series [2] in a line: Human serum stability assay (RP-HPLC). Conditions: 50% (v/v) human serum, 50 μM peptide, 37 °C, up to 48 h, n = 3.
Experimental: Human Serum Stability Assay: Stock solutions of the peptides (10 mM in DMSO) and reconstituted normal human serum (Thermo Scientific) were pre-equilibrated to 37 °C for 15 minutes in separate tubes. For each replicate, peptides and serum were combined to a final concentration of 50 μM and 50% (v/v) respectively, final volume of 150 μL. The reaction tubes were then incubated at 37 °C with 300 rpm shaking in an Eppendorf ThermoMixer. At each time point, 20 μL of the reaction was taken from each replicate and diluted with four-fold excess of cold acetone. The serum proteins were allowed to precipitate for 15 minutes at -20 °C and were removed by centrifugation at 14,000 g, 4 °C for 10 minutes. The supernatant was transferred to a new tube, diluted with the same volume of water, and were stored at -20 °C until HPLC analysis. Chromatographic separations were performed on a C18 reversed phase analytical column (Higgins Analytical, 150x4.6 mm, 5 μm pore size) using a 30-50% B linear gradient over 30 minutes. Solvent A consisted of 0.1% (v/v) TFA in water, and solvent B contained 90% acetonitrile, 0.1% TFA in water.
In another series the test system is mice. As to the kind of experiment: In vivo glucose tolerance test (GTT). The arrangement: species or system mouse. Conditions: male B6 mice, 16 h fast, 10 nmol/kg IP peptide, then 2 g/kg IP glucose; blood glucose 0-120 min; n = 8; one-way ANOVA, Dunnett's post-test. The protocol: Given the promising activation and stability data, we next tested our peptides in vivo using a standard glucose tolerance test (GTT). More specifically, following a 16h fast, mice were injected intraperitoneally (IP) with 10 nmol/kg peptide followed by 2 g/kg of glucose.
In Vivo GTT Test: Male B6 mice at 10−12 weeks of age were housed (8 mice/cage) at a constant RT of 24 °C on a normal day-light cycle and provided a standard diet ad libitum. After 1 week of acclimatization, B6 mice (n = 8 per treatment arm) were fasted for 16 h overnight, and the following morning baseline blood glucose levels were measured (OneTouch), followed by intraperitoneal (IP) injection of vehicle (saline) or the indicated peptide (10 nmol/kg). Thirty minutes later, the mice were treated with a bolus IP injection of glucose (2 g/kg, 20% aqueous solution), followed by serial blood glucose monitoring at 0, 15, 30, 60, and 120 min. Samples for the measurement of blood glucose were obtained from the saphenous vein and collected into heparinized capillary tubes. All animal experiments were approved by and performed in accordance with the guidelines and regulations set forth by the Institutional Animal Care and Use Committee of the Dana-Farber Cancer Institute.

For series [3] the following is noted: clinically marketed as Forteo; cited from earlier work.

On to `CC[C@H](C)[C@H](NC(=O)[C@H](Cc1ccccc1)NC(=O)[C@H](CCC(=O)O)NC(=O)[C@H](CCCCNC(=O)COCCOCCNC(=O)COCCOCCNC(=O)CC[C@H](NC(=O)CCCCCCCCCCCCCCCCC(=O)O)C(=O)O)NC(=O)[C@H](C)NC(=O)[C@H](C)NC(=O)[C@H](CCC(N)=O)NC(=O)CNC(=O)[C@H](CCC(=O)O)NC(=O)[C@H](CC(C)C)NC(=O)[C@H](Cc1ccc(O)cc1)NC(=O)[C@H](CO)NC(=O)[C@H](CO)NC(=O)[C@@H](NC(=O)[C@H](CC(=O)O)NC(=O)[C@H](CO)NC(=O)[C@@H](NC(=O)[C@H](Cc1ccccc1)NC(=O)[C@@H](NC(=O)CNC(=O)[C@H](CCC(=O)O)NC(=O)C(C)(C)NC(=O)[C@@H](N)Cc1cnc[nH]1)[C@@H](C)O)[C@@H](C)O)C(C)C)C(=O)N[C@@H](C)C(=O)N[C@@H](Cc1c[nH]c2ccccc12)C(=O)N[C@@H](CC(C)C)C(=O)N[C@H](C(=O)N[C@@H](CCCNC(=N)N)C(=O)NCC(=O)N[C@@H](CCCNC(=N)N)C(=O)NCC(=O)O)C(C)C` [Semaglutide], for which the solubility as stock entry in series [1] was “not soluble”. Moreover, the “stability in human serum (in words)” value in series [2] was “almost no sign of degradation up to 48 h”.

For the compound `CCCCCCCCCCCCCCCCCCOCCOCCOCCOCCOCCC(=O)N[C@@H](CO)C(=O)NCCCC[C@H](NC(=O)[C@H](C)NC(=O)[C@H](C)NC(=O)[C@H](CCC(N)=O)NC(=O)CNC(=O)[C@H](CCC(=O)O)NC(=O)[C@H](CC(C)C)NC(=O)[C@H](Cc1ccc(O)cc1)NC(=O)[C@H](CO)NC(=O)[C@H](CO)NC(=O)[C@@H](NC(=O)[C@H](CC(=O)O)NC(=O)[C@H](CO)NC(=O)[C@@H](NC(=O)[C@H](Cc1ccccc1)NC(=O)[C@@H](NC(=O)CNC(=O)[C@H](CCC(=O)O)NC(=O)C(C)(C)NC(=O)[C@@H](N)Cc1c[nH]cn1)[C@@H](C)O)[C@@H](C)O)C(C)C)C(=O)N[C@@H](CCC(=O)O)C(=O)N[C@@H](Cc1ccccc1)C(=O)N[C@H](C(=O)N[C@@H](C)C(=O)N[C@@H](Cc1c[nH]c2ccccc12)C(=O)N[C@@H](CC(C)C)C(=O)N[C@H](C(=O)N[C@@H](CCCCN)C(=O)NCC(=O)N[C@@H](CCCNC(=N)N)C(=O)NCC(=O)O)C(C)C)[C@@H](C)CC` [G1], the “glycemic control in acute GTT (blood glucose AUC) compared to unmodified GLP-1” value in the series on mice is recorded as “statistically significant glycemic control”. As for “PTH(1–34): clinically marketed by Eli Lilly as Forteo”, the “half-life in the blood” value in series [3] is given as ~ 5 minutes.
